From patent US20120029177A1, “HETEROCYCLE-AMINO ACID DERIVATIVES FOR TARGETING CANCER TISSUE AND RADIOACTIVE OR NON-RADIOACTIVE LABELED COMPOUNDS THEREOF” (SNU R&DB FOUNDATION, priority 2009, published 2012)
Blank lines part the entries; values can stand above or below the compound they belong to.

Test system: SNU-C4 xenografted nude mice
Test: Biodistribution study in SNU-C4 xenografted nude mice after intravenous injection
Assay type: in vivo, mouse
Conditions: for % ID/g Tumor: SNU-C4 tumor
Protocol: Human colon cancer cell line SNU-C4 was cultured in RPMI1640 media containing 10% fetal bovine serum and harvested using trypsin. The cells were washed using 10 mL PBS and centrifugation at 3,000 rpm. Each nude mouse was injected with 2×10^5 cells/0.1 mL on the right shoulder subcutaneously. On 13 days post-injection, each 10 μCi/0.1 mL of ^68Ga labeled agent was injected into the xenografted mice through the tail vein. The injected mice were sacrificed at 10 min, 30 min, 1 hr, and 2 hr, cancer, blood, muscle, heart, liver, spleen, stomach, intestine, and bone were obtained, weighed, and their radioactivities were counted. The results were expressed as percentages of injected dose per gram tissue (% ID/g).

[1] = 10 min after intravenous injection
[2] = 30 min after intravenous injection
[3] = 1 hr after intravenous injection
[4] = 2 hr after intravenous injection

% ID/g Tumor [1]: 2.71 ± 0.51 % ID/g | % ID/g Tumor [2]: 2.10 ± 0.23 % ID/g | % ID/g Tumor [3]: 0.99 ± 0.10 % ID/g | % ID/g Tumor [4]: 0.67 ± 0.12 % ID/g | % ID/g Blood [1]: 7.82 ± 1.05 % ID/g | % ID/g Blood [2]: 3.61 ± 0.74 % ID/g | % ID/g Blood [3]: 1.12 ± 0.27 % ID/g | % ID/g Blood [4]: 0.44 ± 0.06 % ID/g | % ID/g Bone [1]: 2.56 ± 0.61 % ID/g | % ID/g Bone [2]: 1.54 ± 0.53 % ID/g | % ID/g Bone [3]: 0.72 ± 0.23 % ID/g | % ID/g Bone [4]: 0.58 ± 0.19 % ID/g | % ID/g Heart [1]: 2.33 ± 0.32 % ID/g | % ID/g Heart [2]: 0.97 ± 0.20 % ID/g | % ID/g Heart [3]: 0.37 ± 0.10 % ID/g | % ID/g Heart [4]: 0.23 ± 0.03 % ID/g | % ID/g Intestine [1]: 2.24 ± 0.36 % ID/g | % ID/g Intestine [2]: 1.27 ± 0.25 % ID/g | % ID/g Intestine [3]: 0.68 ± 0.11 % ID/g | % ID/g Intestine [4]: 0.62 ± 0.07 % ID/g | % ID/g Kidney [1]: 32.32 ± 21.63 % ID/g | % ID/g Kidney [2]: 13.61 ± 3.98 % ID/g | % ID/g Kidney [3]: 8.46 ± 2.11 % ID/g | % ID/g Kidney [4]: 6.90 ± 1.10 % ID/g | % ID/g Liver [1]: 2.91 ± 0.31 % ID/g | % ID/g Liver [2]: 2.75 ± 0.49 % ID/g | % ID/g Liver [3]: 2.31 ± 0.27 % ID/g | % ID/g Liver [4]: 2.17 ± 0.20 % ID/g | % ID/g Lung [1]: 6.96 ± 1.06 % ID/g | % ID/g Lung [2]: 3.57 ± 0.80 % ID/g | % ID/g Lung [3]: 1.32 ± 0.35 % ID/g | % ID/g Lung [4]: 0.87 ± 0.25 % ID/g | % ID/g Muscle [1]: 2.81 ± 0.82 % ID/g | % ID/g Muscle [2]: 1.45 ± 0.42 % ID/g | % ID/g Muscle [3]: 0.45 ± 0.17 % ID/g | % ID/g Muscle [4]: 0.13 ± 0.07 % ID/g | % ID/g Spleen [1]: 1.86 ± 0.24 % ID/g | % ID/g Spleen [2]: 1.03 ± 0.22 % ID/g | % ID/g Spleen [3]: 0.47 ± 0.10 % ID/g | % ID/g Spleen [4]: 0.38 ± 0.08 % ID/g | % ID/g Stomach [1]: 2.52 ± 0.46 % ID/g | % ID/g Stomach [2]: 1.22 ± 0.32 % ID/g | % ID/g Stomach [3]: 0.38 ± 0.05 % ID/g | % ID/g Stomach [4]: 0.18 ± 0.03 % ID/g
Compound: O=C([O-])CN1CCNCCN(CC(=O)[O-])CCNCC1.[68Ga+3] [^68Ga-DO2A, reference compound]

% ID/g Tumor [1]: 3.14 ± 0.73 % ID/g | % ID/g Tumor [2]: 1.83 ± 0.20 % ID/g | % ID/g Tumor [3]: 0.93 ± 0.33 % ID/g | % ID/g Tumor [4]: 0.54 ± 0.04 % ID/g | % ID/g Blood [1]: 6.96 ± 0.18 % ID/g | % ID/g Blood [2]: 3.21 ± 0.58 % ID/g | % ID/g Blood [3]: 1.03 ± 0.34 % ID/g | % ID/g Blood [4]: 0.22 ± 0.02 % ID/g | % ID/g Bone [1]: 1.64 ± 0.48 % ID/g | % ID/g Bone [2]: 0.97 ± 0.28 % ID/g | % ID/g Bone [3]: 0.38 ± 0.12 % ID/g | % ID/g Bone [4]: 0.28 ± 0.33 % ID/g | % ID/g Heart [1]: 1.75 ± 0.12 % ID/g | % ID/g Heart [2]: 0.77 ± 0.11 % ID/g | % ID/g Heart [3]: 0.32 ± 0.09 % ID/g | % ID/g Heart [4]: 0.06 ± 0.09 % ID/g | % ID/g Intestine [1]: 1.87 ± 0.06 % ID/g | % ID/g Intestine [2]: 1.00 ± 0.14 % ID/g | % ID/g Intestine [3]: 0.64 ± 0.17 % ID/g | % ID/g Intestine [4]: 0.42 ± 0.08 % ID/g | % ID/g Kidney [1]: 11.96 ± 0.51 % ID/g | % ID/g Kidney [2]: 7.85 ± 1.00 % ID/g | % ID/g Kidney [3]: 6.52 ± 3.13 % ID/g | % ID/g Kidney [4]: 7.50 ± 3.82 % ID/g | % ID/g Liver [1]: 1.99 ± 0.03 % ID/g | % ID/g Liver [2]: 1.35 ± 0.13 % ID/g | % ID/g Liver [3]: 1.02 ± 0.16 % ID/g | % ID/g Liver [4]: 0.93 ± 0.05 % ID/g | % ID/g Lung [1]: 5.81 ± 0.54 % ID/g | % ID/g Lung [2]: 2.82 ± 0.59 % ID/g | % ID/g Lung [3]: 1.26 ± 0.28 % ID/g | % ID/g Lung [4]: 0.61 ± 0.23 % ID/g | % ID/g Muscle [1]: 1.69 ± 0.39 % ID/g | % ID/g Muscle [2]: 0.92 ± 0.27 % ID/g | % ID/g Muscle [3]: 0.32 ± 0.17 % ID/g | % ID/g Muscle [4]: 0.10 ± 0.03 % ID/g | % ID/g Spleen [1]: 1.63 ± 0.08 % ID/g | % ID/g Spleen [2]: 0.95 ± 0.14 % ID/g | % ID/g Spleen [3]: 0.64 ± 0.09 % ID/g | % ID/g Spleen [4]: 0.53 ± 0.11 % ID/g | % ID/g Stomach [1]: 2.37 ± 0.56 % ID/g | % ID/g Stomach [2]: 1.00 ± 0.24 % ID/g | % ID/g Stomach [3]: 0.43 ± 0.20 % ID/g | % ID/g Stomach [4]: 0.16 ± 0.05 % ID/g
Compound: O=C([O-])CN1CCNCCN(CC(=O)[O-])CCN(CC(=O)[O-])CC1.[68Ga+3] [^68Ga-DO3A, reference compound]

% ID/g Tumor [1]: 2.55 ± 0.81 % ID/g | % ID/g Tumor [2]: 1.26 ± 0.23 % ID/g | % ID/g Tumor [3]: 0.60 ± 0.06 % ID/g | % ID/g Tumor [4]: 0.41 ± 0.09 % ID/g | % ID/g Blood [1]: 7.52 ± 0.77 % ID/g | % ID/g Blood [2]: 2.76 ± 0.41 % ID/g | % ID/g Blood [3]: 0.90 ± 0.19 % ID/g | % ID/g Blood [4]: 0.21 ± 0.01 % ID/g | % ID/g Bone [1]: 1.86 ± 0.22 % ID/g | % ID/g Bone [2]: 0.85 ± 0.11 % ID/g | % ID/g Bone [3]: 0.33 ± 0.10 % ID/g | % ID/g Bone [4]: 0.17 ± 0.17 % ID/g | % ID/g Heart [1]: 2.04 ± 0.19 % ID/g | % ID/g Heart [2]: 0.68 ± 0.09 % ID/g | % ID/g Heart [3]: 0.23 ± 0.08 % ID/g | % ID/g Heart [4]: 0.08 ± 0.05 % ID/g | % ID/g Intestine [1]: 1.62 ± 0.11 % ID/g | % ID/g Intestine [2]: 0.68 ± 0.08 % ID/g | % ID/g Intestine [3]: 0.36 ± 0.05 % ID/g | % ID/g Intestine [4]: 0.26 ± 0.08 % ID/g | % ID/g Kidney [1]: 16.19 ± 1.83 % ID/g | % ID/g Kidney [2]: 6.33 ± 0.95 % ID/g | % ID/g Kidney [3]: 4.13 ± 1.13 % ID/g | % ID/g Kidney [4]: 2.92 ± 0.97 % ID/g | % ID/g Liver [1]: 1.30 ± 0.15 % ID/g | % ID/g Liver [2]: 0.60 ± 0.08 % ID/g | % ID/g Liver [3]: 0.32 ± 0.04 % ID/g | % ID/g Liver [4]: 0.21 ± 0.03 % ID/g | % ID/g Muscle [1]: 2.08 ± 0.11 % ID/g | % ID/g Muscle [2]: 0.70 ± 0.12 % ID/g | % ID/g Muscle [3]: 0.26 ± 0.12 % ID/g | % ID/g Muscle [4]: 0.10 ± 0.04 % ID/g | % ID/g Spleen [1]: 1.41 ± 0.08 % ID/g | % ID/g Spleen [2]: 0.56 ± 0.07 % ID/g | % ID/g Spleen [3]: 0.27 ± 0.06 % ID/g | % ID/g Spleen [4]: 0.18 ± 0.06 % ID/g | % ID/g Stomach [1]: 1.86 ± 0.39 % ID/g | % ID/g Stomach [2]: 0.72 ± 0.15 % ID/g | % ID/g Stomach [3]: 0.26 ± 0.06 % ID/g | % ID/g Stomach [4]: 0.10 ± 0.03 % ID/g
Compound: O=C([O-])CN1CCN(CC(=O)[O-])CCN(CC(=O)O)CCN(CC(=O)[O-])CC1.[68Ga+3] [^68Ga-DOTA, reference compound]

% ID/g Tumor [1]: 2.69 ± 0.19 % ID/g | % ID/g Tumor [2]: 1.28 ± 0.22 % ID/g | % ID/g Tumor [3]: 0.59 ± 0.18 % ID/g | % ID/g Tumor [4]: 0.43 ± 0.06 % ID/g | % ID/g Blood [1]: 7.13 ± 0.77 % ID/g | % ID/g Blood [2]: 2.55 ± 0.31 % ID/g | % ID/g Blood [3]: 0.41 ± 0.24 % ID/g | % ID/g Blood [4]: 0.07 ± 0.00 % ID/g | % ID/g Bone [1]: 1.95 ± 0.06 % ID/g | % ID/g Bone [2]: 0.65 ± 0.16 % ID/g | % ID/g Bone [3]: 0.15 ± 0.09 % ID/g | % ID/g Bone [4]: 0.06 ± 0.07 % ID/g | % ID/g Heart [1]: 1.83 ± 0.16 % ID/g | % ID/g Heart [2]: 0.59 ± 0.07 % ID/g | % ID/g Heart [3]: 0.15 ± 0.10 % ID/g | % ID/g Heart [4]: 0.07 ± 0.07 % ID/g | % ID/g Intestine [1]: 1.52 ± 0.08 % ID/g | % ID/g Intestine [2]: 0.84 ± 0.10 % ID/g | % ID/g Intestine [3]: 0.33 ± 0.14 % ID/g | % ID/g Intestine [4]: 0.47 ± 0.17 % ID/g | % ID/g Kidney [1]: 11.61 ± 0.61 % ID/g | % ID/g Kidney [2]: 7.44 ± 1.29 % ID/g | % ID/g Kidney [3]: 3.56 ± 2.10 % ID/g | % ID/g Kidney [4]: 2.73 ± 0.32 % ID/g | % ID/g Liver [1]: 1.98 ± 0.19 % ID/g | % ID/g Liver [2]: 1.44 ± 0.29 % ID/g | % ID/g Liver [3]: 1.04 ± 0.35 % ID/g | % ID/g Liver [4]: 1.21 ± 0.21 % ID/g | % ID/g Muscle [1]: 1.68 ± 0.86 % ID/g | % ID/g Muscle [2]: 0.77 ± 0.19 % ID/g | % ID/g Muscle [3]: 0.20 ± 0.17 % ID/g | % ID/g Muscle [4]: 0.04 ± 0.01 % ID/g | % ID/g Spleen [1]: 1.41 ± 0.19 % ID/g | % ID/g Spleen [2]: 0.62 ± 0.09 % ID/g | % ID/g Spleen [3]: 0.22 ± 0.09 % ID/g | % ID/g Spleen [4]: 0.19 ± 0.03 % ID/g | % ID/g Stomach [1]: 2.13 ± 0.26 % ID/g | % ID/g Stomach [2]: 0.76 ± 0.31 % ID/g | % ID/g Stomach [3]: 0.20 ± 0.10 % ID/g | % ID/g Stomach [4]: 0.11 ± 0.03 % ID/g
Compound: O=C([O-])CN1CCN(CC(=O)[O-])CCN(CC(=O)[O-])CC1.[68Ga+3] [^68Ga-NOTA, reference compound]
